Entries after “also recorded” stand apart in the source; their conditions may differ.
Experiments:
soluble Aβ = details: AD transgenic mouse, within hours, ApoE-dependent; cited from earlier work
ApoE promoter = ApoE promoter luciferase reporter assay in Huh-7 cells; format: cell-based, human; details: for luciferase activity of ApoE promoter: Huh-7, serial truncations of ApoE promoter from -1061/+45 to -154/+45, 24 h (FIG. 3C)
Source text: The promoter region of human APOE gene has been identified and published [[…]]. We constructed ApoE promoter region from -1061 +45 in two-steps. The first fragment was amplified using polymerase chain reaction (PCR) by forward primer APOE-[…] ID NO: 1) paired with reverse primer APOE-R-BglII: [NT] ID NO: 2) and was ligated to the pGL3 basic vector (Promega, Madison, Wis., USA) by using Kpn I and Bgl II restriction sites. The second fragment was amplified using PCR by forward primer APOE-F-BglII: [NT] ID NO: 3) paired with reverse primer APOE-[…] ID NO: 4) and was ligated to the pGL3-basic (Promega) by using Bgl II and Hind III restriction sites. The serial deletion mutants of ApoE promoter, -705/+45, -456/+45, -344/+45, -247/+45, -154/+45 and -32/+45 were amplified using PCR and based on the full-length ApoE promoter (-1061/+45). The generated fragments were digested by Kpn I and Xba I and then inserted into the pGL3-basic vector (Promega). To generate the deletion mutants of ApoE promoter, primers were used to amplify the promoter for different lengths. The forward primers were APOE-705-[…] ID NO: 5), APOE-456-[…] ID NO: 6), APOE-344-[…] ID NO: 7), APOE-247-[…] ID NO: 8), APOE-154-[…] ID NO: 9), and APOE-32-[…] ID NO: 10) which were paired with reverse primer APOE-[…] ID NO: 4) to amplify the target region of the promoter. For disrupting the binding sites of PPAR and/or AP-2 on ApoE promoter, we conducted the point mutation method and the primers paired used were as follows: -154[…] ID NO: 11) paired with -154[…] ID NO: 12), -154[…] ID NO: 13) paired with -154[…] ID NO: 14), -154[…] ID NO: 15) paired with -154[…] ID NO: 16), -154[…] ID NO: 17) paired with -154[…] ID NO: 18). The pGL3-154/+45-ApoE-Luc was used as the template for PCR reaction to amplify the mutant of PPAR or AP-2 binding sites in the ApoE promoter. The PCR products were digested by Dpn I and transformed into TOP10 competent cells (Invitrogen, Carlsbad, Calif., USA). After LB plating and extraction of plasmids, positive colonies were confirmed by restriction enzyme digestion. All of the promoter constructs were verified by sequencing. The Huh-7 cells were seeded in 24-well culture plates and then co-transfected with serial deletion of pGL3-ApoE-Luc (firefly luciferase) with pRL-TK renilla luciferase reporter. Following overnight incubation, the transfected cells were treated with traditional curcumin, and TML-6 for an additional 24h. […] The relative luciferase units (RLU) were measured using a luminometer (GLOMAX Multi, Promega). […] The RLUs are expressed as means plus standard deviation of three independent experiments.

APP = assay: Western blotting of APP in Huh-7 cells; format: cell-based, human; details: 24 h treatment, Western blotting (FIG. 1)
Procedure: The human hepatoma Huh-7 cell lines were obtained from the Health Science Research Resources Bank (JCRB0403; Osaka, Japan) and were cultured in Dulbecco's modified Eagle's medium (DMEM, Gibco) supplemented with 100 U/ml penicillin, 100 mg/ml streptomycin and 10% fetal bovine serum (FBS, Biological industry). Cells were cultured at 37° C. in a humidified atmosphere of 5% CO2 incubator (Forma Scientific, Marietta, Ohio, USA). The cells were seeded in 24-well, 6 or 10 cm dishes overnight the day before the experiment.
After cells were seeded and treated with curcumin and its derivatives for 24h, cells were washed with ice-cold PBS and lysed with 100 μL of RIPA lysis buffer (Pierce Biotechnology, Rockford, Ill., USA) supplemented with protease and phosphatase inhibitors (Roche Diagnostics, Mannheim, Germany). Cell lysates were further cleaned by centrifugation at 14000 rpm 4° C. for 15 min. Protein concentration was determined using a Bradford assay (Bio-Rad, Hercules, Calif., USA). For western blot analysis, 20 μg of each sample was prepared for SDS-PAGE and denatured at 95° C. for 10 min. The prepared samples from total lysates were loaded and separated by SDS-PAGE (8% or 10%), and then transferred to PVDF membranes (pore size 0.45 μm; PerkinElmer) by semi-dry transfer cell (Bio-Rad). […]

phospho-NF-κB = assay: Western blotting of phospho-NF-κB in Huh-7 cells; format: cell-based, human; details: 24 h treatment, Western blotting (FIG. 1)
Procedure: (§1) The human hepatoma Huh-7 cell lines were obtained from the Health Science Research Resources Bank (JCRB0403; Osaka, Japan) and were cultured in Dulbecco's modified Eagle's medium (DMEM, Gibco) supplemented with 100 U/ml penicillin, […] streptomycin and 10% fetal bovine serum (FBS, Biological industry). Cells were cultured at 37° C. in a humidified atmosphere of 5% CO2 incubator (Forma Scientific, Marietta, Ohio, USA). The cells were seeded in 24-well, 6 or 10 cm dishes overnight the day before the experiment. On the next day, the cells were treated with curcumin (Sigma) and TML-6. The stock concentration was prepared at 5 mg/mL (for curcumin) and 10 mM (for TML-6).
(§2) After cells were seeded and treated with curcumin and its derivatives for 24h, cells were washed with ice-cold PBS and lysed with 100 μL of RIPA lysis buffer (Pierce Biotechnology, Rockford, Ill., USA) supplemented with protease and phosphatase inhibitors (Roche Diagnostics, Mannheim, Germany). Cell lysates were further cleaned by centrifugation at 14000 rpm 4° C. for 15 min. Protein concentration was determined using a Bradford assay (Bio-Rad, Hercules, Calif., USA). For western blot analysis, 20 μg of each sample was prepared for SDS-PAGE and denatured at 95° C. for 10 min. […]

ApoE = assay: Western blotting of ApoE in Huh-7 cells; format: cell-based, human; details: 24 h treatment, Western blotting (FIG. 1)
Procedure: as §1, §2

[1] = system: Aβ levels in the brain of 3×Tg AD transgenic mice; assay: Aβ immunofluorescence staining of brain sections of 3×Tg-AD transgenic mice; format: in vivo; details: six-month-old 3×Tg AD mice fed 150 mg/kg for four months, immunofluorescence (FIG. 4)
Source text: (§3) Triple-transgenic mice as a model of Alzheimer's disease (3×Tg-AD, APP Swedish, MAPT P301L, and PSEN1 M146V) were bred at the laboratory animal center of National Cheng Kung University (NCKU) [Oddo S, Caccamo A, Shepherd J D, Murphy M P, Golde T E, Kayed R, Metherate R, Mattson M P, Akbari Y, LaFerla F M: Triple-transgenic model of Alzheimer's disease with plaques and tangles: intracellular Abeta and synaptic dysfunction. Neuron 2003, 39(3):409-421]. Experimental procedures for handling the mice were in accordance with the guidelines of the Institutional Animal Care and Use Committee (IACUC) of NCKU. The mice were housed in a room maintained on a 12-h light-dark cycle and fed ad libitum. […] These mice developed plaque and tangle pathology. Aβ deposition as progressive deposition appeared as early as six months.
(§4) Mice were anesthetized and euthanized with 10% chloral hydrate (400 mg/kg, i.p.) and then transcardial perfusion was performed with 0.01 M PBS (pH 7.4). The brains were post-fixed in 4% PFA for 2 days and dehydrated with 30% sucrose at 4° C. The hydrated brain was embedded with optimal cutting temperature compound (OCT, Leica) and quick-frozen at −30° C. The blocks were sectioned at 16 um-thick. Slices were stored at −20° C. […] The images were captured by TissureFAXS microscopy system and positive signals were quantified by TissueQuest software module (TissueGnostic, Vienne, Austria).

[2] = system: Aβ production in N2a/APPswe cells; assay: Amyloid β ELISA of culture medium of N2a/APPswe stable cell line; format: cell-based; details: 24 h incubation, ELISA (FIG. 2)
Procedure: Extracellular levels of soluble Aβ40 and Aβ42 were determined by LEGEND MAX™ 3-Amyloid x-40 and X-42 ELISA Kit (Biolegend). N2A neuroblastoma cell line with stably over expressing APP Swedish mutation (APPswe) was designed as N2A/APPswe cell line (kindly grafted from Prof. Kuo, Yu-Min's Lab). 8×10^5 N2A/APPswe cells were seeded on a 6-cm dish. After overnight incubation, the cells were treated with curcumin or TML-6 for 24 h. The culture supernatant was collected and centrifuged at 1,500×g at 4° C. for 5 min to remove cells. The Aβ levels of the culture supernatants of various treatments were assayed according to the manufacture's instrumentations. The samples were detected at OD620 and the calculation of Aβ levels was based on the standard curves of Aβ40 and Aβ42, respectively.

[3] = system: Iba-1 (microglial activation biomarker) in 3×Tg AD transgenic mice; assay: Iba-1 immunofluorescence staining in 3×Tg-AD transgenic mice; format: in vivo; details: six-month-old 3×Tg AD mice fed 150 mg/kg for four months, compared to curcumin (FIG. 5)
Source text: as §3, §4

| SMILES | clearance of soluble Aβ (soluble Aβ) | luciferase activity of ApoE promoter (ApoE promoter) | protein expression level of APP (APP) | protein expression level of phospho-NF-κB (phospho-NF-κB) | protein expression level of Apo E (ApoE) | ApoE promoter activity after disruption of proximal PPARα/RXRα and AP2 binding sites (ApoE promoter; Huh-7, -154/+45 mutants MdelAP2 and MdelPPAR, 24 h (FIG. 3E)) | promoter activity of ApoE-154MdelAP2/+45 mutant compared with wild-type -154/+45 (ApoE promoter; Huh-7, siRNA knockdown experiment, 24 h (FIG. 3F)) | Aβ levels in the brain [1] | Aβ42/40 ratio [2] | production of Aβ40 [2] | production of Aβ42 [2] | expression of Iba-1 (brain inflammation) [3] |
| --- | --- | --- | --- | --- | --- | --- | --- | --- | --- | --- | --- | --- |
| C=C(c1ccc(C(=O)O)cc1)c1cc2c(cc1C)C(C)(C)CCC2(C)C [bexarotene] | enhanced clearance |  |  |  |  |  |  |  |  |  |  |  |
| COc1cc(/C=C/C(=O)CC(=O)/C=C/c2ccc(O)c(OC)c2)ccc1O [curcumin, diferuloyl methane] |  | gradually increases | inhibit the APP synthesis | inhibit NFκB | upregulate ApoE |  |  |  |  |  |  |  |
| CCN(CC)C(=O)CC(C)(C(=O)/C=C/c1ccc(OC)c(OC)c1)C(=O)/C=C/c1ccc(OC)c(OC)c1 [TML-6] |  | gradually increases | decreased in a dose-dependent manner | decreased in a dose-dependent manner | significantly increased | significantly suppressed | suppressed | significantly better activity than curcumin; also recorded: significantly decrease | significantly suppresses | significantly suppresses | significantly suppresses | significantly better activity than curcumin; also recorded: significantly inhibited |
